Reference: US20160311831A1, “Imidazotriazinones as PDE1 Inhibitors” (H. Lundbeck A/S, priority 2015, published 2016)

Key:
Assay type in all cases: biochemical
PDE9 = PDE9 (Homo sapiens, UniProt O76083); assay: PDE9 inhibition assay, SPA with 3H-cAMP; details: compound at 10 microM; 10 nM 3H-cAMP, 1 hr incubation
Description: A PDE9 assay may for example, be performed as follows: The assay is performed in 60 μL samples containing a fixed amount of the relevant PDE enzyme (sufficient to convert 20-25% of the cyclic nucleotide substrate), a buffer (50 mM HEPES7.6; 10 mM MgCl2; 0.02% Tween20), 0.1 mg/mL BSA, 225 pCi of ^3H-labelled cyclic nucleotide substrate, tritium labeled cAMP to a final concentration of 5 nM and varying amounts of inhibitors. Reactions are initiated by addition of the cyclic nucleotide substrate, and reactions are allowed to proceed for one hr at room temperature before being terminated through mixing with 15 μL 8 mg/mL yttrium silicate SPA beads (Amersham). The beads are allowed to settle for one hr in the dark before the plates are counted in a Wallac 1450 Microbeta counter. The measured signal can be converted to activity relative to an uninhibited control (100%) and IC50 values can be calculated using the Xlfit extension to EXCEL.
In the context of the present invention the assay was performed in 60 uL assay buffer (50 mM HEPES pH 7.6; 10 mM MgCl2; 0.02% Tween20) containing enough PDE9 to convert 20-25% of 10 nM ^3H-cAMP and varying amounts of inhibitors. Following a 1 hr incubation the reactions were terminated by addition of 15 uL 8 mg/mL yttrium silicate SPA beads (Amersham). The beads were allowed to settle for one hr in the dark before the plates were counted in a Wallac 1450 Microbeta counter.

PDE1C = PDE1C (Homo sapiens, UniProt Q14123); assay: PDE1 inhibition assay (PDE1C), SPA with tritium labelled cAMP; details: 15 nM tritium labelled cAMP, 1 hr at room temperature
PDE1C, sequence (Q14123 whole entry): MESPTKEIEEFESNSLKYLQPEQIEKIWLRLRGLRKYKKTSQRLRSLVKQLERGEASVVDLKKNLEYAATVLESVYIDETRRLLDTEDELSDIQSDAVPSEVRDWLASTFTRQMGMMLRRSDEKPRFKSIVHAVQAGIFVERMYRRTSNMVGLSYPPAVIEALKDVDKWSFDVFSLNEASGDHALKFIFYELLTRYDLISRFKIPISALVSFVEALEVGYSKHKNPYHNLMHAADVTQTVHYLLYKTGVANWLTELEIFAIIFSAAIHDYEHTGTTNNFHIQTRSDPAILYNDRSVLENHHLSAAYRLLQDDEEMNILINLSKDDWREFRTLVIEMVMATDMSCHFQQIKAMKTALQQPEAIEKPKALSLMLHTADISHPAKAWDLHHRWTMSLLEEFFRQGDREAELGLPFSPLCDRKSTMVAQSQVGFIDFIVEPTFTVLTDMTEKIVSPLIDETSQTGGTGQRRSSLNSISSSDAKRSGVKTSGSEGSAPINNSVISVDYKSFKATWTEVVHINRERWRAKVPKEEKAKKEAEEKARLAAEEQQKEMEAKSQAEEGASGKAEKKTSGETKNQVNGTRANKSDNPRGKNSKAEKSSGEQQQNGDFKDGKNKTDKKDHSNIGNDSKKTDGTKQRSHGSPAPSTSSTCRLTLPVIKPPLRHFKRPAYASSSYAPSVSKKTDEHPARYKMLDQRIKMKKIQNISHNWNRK
Description: (§1) PDE1A, PDE1B and PDE1C assays were performed as follows: the assays was performed in 60 μL samples containing a fixed amount of the PDE1 enzym1 (sufficient to convert 20-25% of the cyclic nucleotide substrate), a buffer (50 mM HEPES pH 7.6; 10 mM MgCl2; 0.02% Tween20), 0.1 mg/mL BSA, 15 nM tritium labelled cAMP and varying amounts of inhibitors. Reactions were initiated by addition of the cyclic nucleotide substrate, and reactions were allowed to proceed for 1 hr at room temperature before being terminated through mixing with 20 μL (0.2 mg) yttrium silicate SPA beads (PerkinElmer). The beads were allowed to settle for 1 hr in the dark before the plates were counted in a Wallac 1450 Microbeta counter. The measured signals were converted to activity relative to an uninhibited control (100%) and IC50 values were calculated using XIFit (model 205, IDBS).

PDE1A = PDE1A (Homo sapiens, UniProt P54750); assay: PDE1 inhibition assay (PDE1A), SPA with tritium labelled cAMP; details: 15 nM tritium labelled cAMP, 1 hr at room temperature
PDE1A, sequence (P54750 whole entry): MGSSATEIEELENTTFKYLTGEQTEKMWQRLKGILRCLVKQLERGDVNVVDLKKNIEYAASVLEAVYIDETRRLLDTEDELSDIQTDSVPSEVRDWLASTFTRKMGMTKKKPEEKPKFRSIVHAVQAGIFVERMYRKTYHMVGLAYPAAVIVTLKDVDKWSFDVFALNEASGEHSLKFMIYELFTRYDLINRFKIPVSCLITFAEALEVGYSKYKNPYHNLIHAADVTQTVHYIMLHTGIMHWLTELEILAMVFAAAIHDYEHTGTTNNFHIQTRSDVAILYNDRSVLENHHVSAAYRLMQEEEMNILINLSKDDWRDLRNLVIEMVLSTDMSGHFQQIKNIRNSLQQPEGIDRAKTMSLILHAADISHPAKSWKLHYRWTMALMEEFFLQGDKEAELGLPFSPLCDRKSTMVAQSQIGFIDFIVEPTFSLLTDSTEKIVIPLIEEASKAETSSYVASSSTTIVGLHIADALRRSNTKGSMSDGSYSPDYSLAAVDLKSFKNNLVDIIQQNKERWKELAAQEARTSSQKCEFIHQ
Description: as §1

PDE1B = PDE1B (Homo sapiens, UniProt Q01064); assay: PDE1 inhibition assay (PDE1B), SPA with tritium labelled cAMP; details: 15 nM tritium labelled cAMP, 1 hr at room temperature
PDE1B, sequence (Q01064 whole entry): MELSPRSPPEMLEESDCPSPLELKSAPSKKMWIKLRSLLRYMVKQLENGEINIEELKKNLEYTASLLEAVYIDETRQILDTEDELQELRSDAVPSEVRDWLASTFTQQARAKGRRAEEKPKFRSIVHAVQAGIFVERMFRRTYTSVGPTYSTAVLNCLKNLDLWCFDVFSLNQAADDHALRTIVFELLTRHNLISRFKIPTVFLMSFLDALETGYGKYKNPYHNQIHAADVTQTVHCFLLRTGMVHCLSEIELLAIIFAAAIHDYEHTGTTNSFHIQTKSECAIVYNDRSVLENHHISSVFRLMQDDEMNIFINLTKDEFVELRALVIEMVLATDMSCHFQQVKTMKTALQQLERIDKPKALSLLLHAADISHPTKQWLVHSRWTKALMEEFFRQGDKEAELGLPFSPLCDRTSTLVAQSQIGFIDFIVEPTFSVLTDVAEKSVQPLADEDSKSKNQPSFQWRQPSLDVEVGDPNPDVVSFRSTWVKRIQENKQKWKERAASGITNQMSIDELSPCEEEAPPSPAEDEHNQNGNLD
Description: as §1

PDE9, sequence (O76083 whole entry): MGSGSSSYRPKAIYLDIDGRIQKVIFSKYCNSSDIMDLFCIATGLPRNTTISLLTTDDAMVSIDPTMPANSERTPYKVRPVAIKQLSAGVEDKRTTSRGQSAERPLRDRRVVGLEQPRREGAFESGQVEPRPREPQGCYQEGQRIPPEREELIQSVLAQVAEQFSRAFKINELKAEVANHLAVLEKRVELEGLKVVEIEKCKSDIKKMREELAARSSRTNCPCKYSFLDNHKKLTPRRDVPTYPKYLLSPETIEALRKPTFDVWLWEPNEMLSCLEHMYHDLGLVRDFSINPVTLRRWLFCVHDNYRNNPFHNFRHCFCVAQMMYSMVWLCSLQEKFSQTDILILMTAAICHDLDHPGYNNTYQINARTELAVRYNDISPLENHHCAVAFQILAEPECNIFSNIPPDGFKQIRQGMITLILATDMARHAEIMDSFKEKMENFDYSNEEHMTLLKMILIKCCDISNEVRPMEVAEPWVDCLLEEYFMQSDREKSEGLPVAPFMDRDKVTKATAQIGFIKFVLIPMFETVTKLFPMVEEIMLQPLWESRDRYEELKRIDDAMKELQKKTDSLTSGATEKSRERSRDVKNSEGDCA

inhibition at 10 µM (PDE9) [%] | IC50 (PDE1C) [nM] | IC50 (PDE1A) [nM] | IC50 (PDE1B) [nM] | Compound
4 | 52 | 115 | 259 | COc1cccc(Cn2c(C)nn3c(C4CCOCC4)ncc3c2=O)c1 [Example 19, 3-(3-Methoxybenzyl)-2-methyl-7-(tetrahydro-2H-pyran-4-yl)imidazo[5,1-f][1,2,4]triazin-4(3H)-one]
-11 | 62 | 245 | 103 | Cc1ccc(Cc2nn3c(C4CCOCC4)ncc3c(=O)n2CC2CCC2)cc1 [Example 10, 3-(Cyclobutylmethyl)-2-(4-methylbenzyl)-7-(tetrahydro-2H-pyran-4-yl)imidazo[5,1-f][1,2,4]triazin-4(3H)-one]
21 | 25 | 33 | 52 | O=c1c2cnc(C3CCOCC3)n2ncn1CC1CCCCCC1 [Example 29, 3-(Cycloheptylmethyl)-7-(tetrahydro-2H-pyran-4-yl)imidazo[5,1-f][1,2,4]triazin-4(3H)-one]

Continued, compound first:

Compound | inhibition at 10 µM (PDE9) [%] | IC50 (PDE1C) [nM] | IC50 (PDE1A) [nM] | IC50 (PDE1B) [nM]
Cc1ccc(Cc2nn3c(C4CCOCC4)ncc3c(=O)n2CC(C)C)cc1 [Example 5, 3-isobutyl-2-(4-methylbenzyl)-7-(tetrahydro-2H-pyran-4-yl)imidazo[5,1-f][1,2,4]triazin-4(3H)-one] | -3 | 38 | 47 | 52
Cc1ccc(Cc2nn3c(C4CCOCC4)ncc3c(=O)n2C)cc1 [Example 2, 3-Methyl-2-(4-methylbenzyl)-7-(tetrahydro-2H-pyran-4-yl)imidazo[5,1-f][1,2,4]triazin-4(3H)-one] | 4 | 984 | 732 | 258
